The text below walks through data of patent publication US20250313574A1, “SIALIC ACID DERIVATIVES AND METHODS OF USING SAME” (EISAI R&D MANAGEMENT CO., LTD., priority 2022, published 2025).

The target of assay [1] is Recombinant human CD33 protein (Homo sapiens (Human), UniProt P20138). The experiment in a line: CD33 competitive binding assay for HTS drug screen (fluorescent multivalent sialic acid probe). The method in brief:
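Inhibition was read as reduced retention of a fluorescent multivalent sialic acid complex (final 5 μM neutravidin, 15 μM A-375, 5 μM biotin-4-FITC) on plate-immobilized human CD33. Compound was added first, the probe followed for 30 min at room temperature in PBS with 0.2% Tween-20 and 0.5% BSA, and FITC was measured after a wash.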

In assay [2] the target is Recombinant Human Siglec-3/CD33 protein (His-CD33) (Homo sapiens (Human), UniProt P20138). The assay is described as follows: Differential scanning fluorimetry (DSF) thermal shift assay. It is filed as binding.
[3] abbreviates: difference in thermal melt of CD33 protein (0.5 μM) with 50 μM compound.
Where [4] appears, read: thermal melt shift of 0.5 μM CD33 protein with 50 μM compound.

Structures are written as SMILES.

Chain of Recombinant Human Siglec-3/CD33 protein (His-CD33) (P20138 18-259): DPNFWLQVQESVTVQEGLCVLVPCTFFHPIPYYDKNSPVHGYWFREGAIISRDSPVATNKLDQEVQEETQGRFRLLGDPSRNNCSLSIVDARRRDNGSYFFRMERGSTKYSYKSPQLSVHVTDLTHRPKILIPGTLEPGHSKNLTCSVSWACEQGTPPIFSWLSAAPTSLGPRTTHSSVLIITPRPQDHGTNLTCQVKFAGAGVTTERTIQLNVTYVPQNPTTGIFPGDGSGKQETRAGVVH
Chain of Recombinant human CD33 protein (P20138 18-259): as above

Turning to `Cc1cc(C(=O)NC[C@@H](O)[C@@H](O)[C@@H]2O[C@@](C/C=C/c3cccc(CNC(=O)c4cn[nH]c4)c3)(C(=O)O)C[C@H](O)[C@H]2NC(=O)Cn2cc(C3CCCCC3)nn2)cc(C)c1O` [A-277], in assay [1], the concentration for a half-maximal effect (EC50) was 10200 nM. Also, the “DSF (dTmD)” value in assay [2] (setting [3]) was 4.3 °C.

As for `CC(=O)N[C@H]1[C@H]([C@H](O)[C@H](O)CNC(=O)c2cc(C)[nH]n2)O[C@@](CCN2CCOC[C@@]23CCN(C(=O)OC(C)(C)C)C3)(C(=O)O)C[C@@H]1O` [A-156], in assay [1], the EC50 turned out to be 138 nM. Moreover, in assay [2] (setting [4]), the “DSF (dTmD)” value turned out to be 8.9.

For the molecule `Cc1cc(C(=O)NC[C@@H](O)[C@@H](O)[C@@H]2O[C@@](OC3CCCCC3NC(=O)Cn3cc(Cn4ncc5ccccc5c4=O)nn3)(C(=O)O)C[C@H](O)[C@H]2NC(=O)Cn2cc(C3CCCCC3)nn2)cc(C)c1O` (some centres unmarked) [A-331], in assay [1], the EC50 worked out at 4330 nM. Besides, the “DSF (dTmD)” value in assay [2] (setting [3]) is 4.9 °C.

For `Cc1cc(C(=O)NC[C@@H](O)[C@@H](O)[C@@H]2O[C@@](C/C=C/c3cccc(CNC(=O)C4CCCC4)c3)(C(=O)O)C[C@H](O)[C@H]2NC(=O)Cn2cc(C3CCCCC3)nn2)cc(C)c1O` [A-264], the EC50 in assay [1] is 6330 nM. For the same molecule, the “DSF (dTmD)” value in assay [2] (setting [3]) was found to be 5.5 °C.

Turning to `CC(=O)N[C@H]1[C@H]([C@H](O)[C@H](O)CNC(=O)c2ccc3c(cnn3C)c2)O[C@@](CCN2CCOC[C@@]23CCN(C(=O)OC(C)(C)C)C3)(C(=O)O)C[C@@H]1O` [A-124], the half-maximal effective concentration (EC50) in assay [1] stood at 28 nM. Also, in assay [2] (setting [4]), the “DSF (dTmD)” value turned out to be 13.4.

Consider `COC(=O)[C@@]1(CCN2CCOC[C@@]23CCN(C(=O)OC(C)(C)C)C3)C[C@H](O)[C@@H](NC(C)=O)[C@H]([C@H](O)[C@H](O)CNC(=O)c2cc(C)c(O)c(C)c2)O1` [A-361], for which the EC50 in assay [1] was 49000 nM. In assay [2] (setting [3]), the “DSF (dTmD)” value was −0.3 °C.

Take `CC(=O)N[C@H]1[C@H]([C@H](O)[C@H](O)CNC(=O)c2cc(C)c(O)c(C)c2)O[C@@](CC2OC(C)(C)O[C@H]2c2cccc(N3CCCC3=O)c2)(C(=O)O)C[C@@H]1O` (some centres unmarked) [A-309]: the EC50 in assay [1] is 540 nM. Moreover, in assay [2] (setting [3]), the “DSF (dTmD)” value worked out at 5.2 °C.

Regarding `CC(=O)N[C@H]1[C@H]([C@H](O)[C@H](O)CNC(=O)c2cc(C)c(O)c(C)c2)O[C@@](C/C=C/c2cccc(CNC(=O)c3cccc(NCc4cncs4)c3)c2)(C(=O)O)C[C@@H]1O` [A-246], the EC50 in assay [1] is 4000 nM. The “DSF (dTmD)” value in assay [2] (setting [3]) was determined as 2.2 °C.

In the case of `CC(=O)N[C@H]1[C@H]([C@H](O)[C@H](O)CNC(=O)c2cc(C)c(O)c(C)c2)O[C@@](CCN2CCOC[C@@]23CCN(C(=O)NC(C)C)C3)(C(=O)O)C[C@@H]1O` [A-048], the EC50 in assay [1] turned out to be 24 nM. Further, the “DSF (dTmD)” value in assay [2] (setting [4]) amounted to 12.5.

For the molecule `CC(=O)N[C@H]1[C@H]([C@H](O)[C@H](O)CNC(=O)c2cc(C)c(O)c(C)c2)O[C@@](C/C=C/c2cccc(CNC(=O)c3ccc4[nH]ccc4c3)c2)(C(=O)O)C[C@@H]1O` [A-234], the EC50 in assay [1] turned out to be 930 nM. In addition, in assay [2] (setting [3]), the “DSF (dTmD)” value is 4.6 °C.

Turning to `CC(=O)N[C@H]1[C@H]2O[C@](C(=O)O)(C/C=C/COC[C@@H](NC(=O)[C@@H]3CCCOC3)COCCCOc3c(C)cc(cc3C)C(=O)NC[C@@H](O)[C@H]2O)C[C@@H]1O` [A-336], in assay [1], the EC50 worked out at 4190 nM. In assay [2] (setting [3]), the “DSF (dTmD)” value is 3.6 °C.

For the molecule `CC(=O)N[C@H]1[C@H]([C@H](O)[C@H](O)CNC(=O)c2cc(C)c(O)c(C)c2)O[C@@](C/C=C/c2cccc(CNC(=O)c3ccc4[nH]c5c(c4c3)CCC(=O)N5C)c2)(C(=O)O)C[C@@H]1O` [A-254], in assay [1], the EC50 came to 193 nM. Also, in assay [2] (setting [3]), the “DSF (dTmD)” value worked out at 9.2 °C.

With `CC(=O)N[C@H]1[C@H]([C@H](O)[C@H](O)CNC(=O)c2cc(C)c(O)c(C)c2)O[C@@](CC2OC(C)(C)O[C@H]2c2cccc(CC(=O)OC(C)(C)C)c2)(C(=O)O)C[C@@H]1O` (some centres unmarked) [A-315], the EC50 in assay [1] turned out to be 1140 nM. Further, in assay [2] (setting [3]), the “DSF (dTmD)” value is 4.2 °C.

As for `CNC(=O)c1cccc(COC(=O)NCC(=O)NC2CCCCC2O[C@]2(C(=O)O)C[C@H](O)[C@@H](NC(=O)Cn3cc(C4CCCCC4)nn3)[C@H]([C@H](O)[C@H](O)CNC(=O)c3cc(C)c(O)c(C)c3)O2)c1` (some centres unmarked) [A-327], the EC50 in assay [1] was 6610 nM. In addition, in assay [2] (setting [3]), the “DSF (dTmD)” value worked out at 3.2 °C.

With `CC(=O)N[C@H]1[C@H]([C@H](O)[C@H](O)CNC(=O)c2cc(C)c(O)c(C)c2)O[C@@](CCN2CCOC[C@@]23CCN(C(=O)OC(C)(C)C)C3)(c2nn[nH]n2)C[C@@H]1O` [A-363], the EC50 in assay [1] was determined as 6360 nM. The “DSF (dTmD)” value in assay [2] (setting [3]) turned out to be 2.6 °C.

Turning to `CC(=O)N[C@H]1[C@H]([C@H](O)[C@H](O)CNC(=O)c2cc(C)c(O)c(C)c2)O[C@@](CCN2CCOC[C@@]23CCN(C(=O)C2(C)CCCCC2)C3)(C(=O)O)C[C@@H]1O` [A-071], the EC50 in assay [1] stood at 41 nM. The “DSF (dTmD)” value in assay [2] (setting [4]) was 11.0.

Consider `CC(=O)N[C@H]1[C@H]([C@H](O)[C@H](O)CNC(=O)c2cc(C)c(O)c(C)c2)O[C@@](CCN2CCOC[C@@]23CCN(C(=O)C(C)(C)C)C3)(C(=O)O)C[C@@H]1O` [A-097], for which the EC50 in assay [1] was 430 nM. For the same molecule, the “DSF (dTmD)” value in assay [2] (setting [4]) is listed as 8.25.

Take `CC(=O)N[C@H]1[C@H]([C@H](O)[C@H](O)CNC(=O)c2cc(C)c(O)c(C)c2)O[C@@](CC2OC(C)(C)O[C@H]2c2cc(N3CCCC3=O)ccc2C)(C(=O)O)C[C@@H]1O` (some centres unmarked) [A-318]: the EC50 in assay [1] was determined as 130 nM. In addition, the “DSF (dTmD)” value in assay [2] (setting [3]) came out at 7.4 °C.

For the molecule `C/C=C/C=C/C(=O)NC[C@@H](O)[C@@H](O)[C@@H]1O[C@@](CCN2CCOC[C@@]23CCN(C(=O)OC(C)(C)C)C3)(C(=O)O)C[C@H](O)[C@H]1NC(C)=O` [A-163], the concentration for a half-maximal effect (EC50) in assay [1] worked out at 700 nM. Also, the “DSF (dTmD)” value in assay [2] (setting [4]) is reported as 5.7.

For `CC(=O)N[C@H]1[C@H]2O[C@](C(=O)O)(CCCc3cccc(c3)[C@@H](NC(=O)C3CCCOC3)CCCCc3cc(cc(Cl)c3O)C(=O)NC[C@@H](O)[C@H]2O)C[C@@H]1O` (some centres unmarked) [A-351], the EC50 in assay [1] came to 15000 nM. In addition, the “DSF (dTmD)” value in assay [2] (setting [3]) amounted to 3.1 °C.

`CCc1cccc(C(=O)NC[C@@H](O)[C@@H](O)[C@@H]2O[C@@](CCN3CCOC[C@@]34CCN(C(=O)OC(C)(C)C)C4)(C(=O)O)C[C@H](O)[C@H]2NC(C)=O)c1` [A-155]: the EC50 in assay [1] is 200 nM. The “DSF (dTmD)” value in assay [2] (setting [4]) came out at 10.1.

Consider `CC(=O)N[C@H]1[C@H]([C@H](O)[C@H](O)CNC(=O)c2cc(C)c(O)c(C)c2)O[C@@](C/C=C/C2CCN(C(=O)OC(C)(C)C)C2)(C(=O)O)C[C@@H]1O` (some centres unmarked) [A-194], for which the EC50 in assay [1] turned out to be 26 nM. Also, the “DSF (dTmD)” value in assay [2] (setting [4]) is 11.7.

`CC(=O)N[C@H]1[C@H]([C@H](O)[C@H](O)CNC(=O)c2cc(C)c(O)c(C)c2)O[C@@](C/C=C/c2cccc(CNC(=O)c3ccc4cn[nH]c4c3)c2)(C(=O)O)C[C@@H]1O` [A-235]: in assay [1], the EC50 came out at 2090 nM. Further, the “DSF (dTmD)” value in assay [2] (setting [3]) stood at 3.3 °C.

With `CC(=O)N[C@H]1[C@H]([C@H](O)[C@H](O)CNC(=O)c2cc(C(F)(F)F)cc(C(F)(F)F)c2)O[C@@](CCN2CCOC[C@@]23CCN(C(=O)OC(C)(C)C)C3)(C(=O)O)C[C@@H]1O` [A-168], the EC50 in assay [1] worked out at 1970 nM. The “DSF (dTmD)” value in assay [2] (setting [4]) is 8.3.

As for `CC(=O)N[C@H]1[C@H]([C@H](O)[C@H](O)CNC(=O)c2cc(C)c(O)c(C)c2)O[C@@](CCN2CCN(C(C)=O)C[C@@]23CCN(C(=O)OC(C)(C)C)C3)(C(=O)O)C[C@@H]1O` [A-014], the EC50 in assay [1] stood at 19 nM. Also, in assay [2] (setting [4]), the “DSF (dTmD)” value is given as 12.3.

As a reminder, the EC50 is the concentration that produces a half-maximal response.
